Data published in ChEMBL document CHEMBL4665777, “Bioactive Alkaloids from the Actinomycete Actinoalloteichus sp. ZZ1866” (J Nat Prod, 2020).
Active and inactive are the calls of the source. No cut-off for these calls is given here.

How the values were obtained:
Candida albicans = assay: Antimicrobial activity against Candida albicans at 50 ug/ml after 12 hrs by microbroth dilution method; type: functional, organism-based
Escherichia coli = assay: Antimicrobial activity against Escherichia coli at 50 ug/ml after 12 hrs by microbroth dilution method; type: functional, organism-based
U-251 [1] = assay: Antiproliferative activities against human U-251 cells by SRB assay; type: functional, cell-based
Staphylococcus aureus = assay: Antimicrobial activity against methicillin-resistant Staphylococcus aureus at 50 ug/ml after 12 hrs by microbroth dilution method; type: functional, organism-based
U-87 MG [2] = assay: Antiproliferative activities against human U-87 MG cells by SRB assay; type: functional, cell-based, U-87MG ATCC
U-251 [3] = assay: Antiproliferative activities against human U-251 cells at 50 uM by SRB assay; type: functional, cell-based
U-87 MG [4] = assay: Antiproliferative activities against human U-87 MG cells at 50 uM by SRB assay; type: functional, cell-based; settings: u-87mg atcc

| SMILES | Activity (Candida albicans) | Activity (Escherichia coli) | IC50 (U-251 [1]) [µM] | Activity (Staphylococcus aureus) | IC50 (U-87 MG [2]) [µM] | IC50 (U-251 [3]) | IC50 (U-87 MG [4]) |
| --- | --- | --- | --- | --- | --- | --- | --- |
| Cn1c2ccccc2c2cc(C(=O)NCCc3ccccc3)[nH]c(=O)c21 | inactive | inactive | 13 | inactive | 11 |  |  |
| CO[C@@]1(C)N(CCc2ccccc2)C(=O)c2cc3c4ccccc4n(C)c3c(=O)n21 | inactive | inactive | 27 | inactive | 8.9 |  |  |
| CO[C@@]1(C)N(/C=C/c2ccccc2)C(=O)c2cc3c([nH]c4ccccc43)c(=O)n21 | inactive | inactive | 36 | inactive | 43 |  |  |
| CC(=O)NC[C@H](OC(=O)c1cc2c3ccccc3n(C)c2c(=O)[nH]1)c1ccccc1 | inactive | inactive | 15 | inactive | 19 |  |  |
| CC(=O)c1nc(C(=O)NC[C@H](O)c2ccccc2)cc2c3ccccc3n(C)c12 | inactive | inactive |  | inactive |  | Not Active | Not Active |
| CO[C@@]1(C)N(C[C@@H](O)c2ccccc2)C(=O)c2cc3c4ccccc4n(C)c3c(=O)n21 | inactive | inactive | 36 | inactive | 29 |  |  |
| COc1cc(/C=N/OCCc2ccccc2)nc(-c2ccccn2)c1 | inactive | inactive | 2 | inactive | 6.5 |  |  |
| Cn1c2ccccc2c2cc3n(c(=O)c21)[C@@](C)(O)N(CCc1ccccc1)C3=O | inactive | inactive |  | inactive |  | Not Active | Not Active |
| CO[C@@]1(C)N(/C=C/c2ccccc2)C(=O)c2cc3c4ccccc4n(C)c3c(=O)n21 | inactive | inactive | 17 | inactive | 4.5 |  |  |
| CO[C@@]1(C)N(C[C@H](O)c2ccccc2)C(=O)c2cc3c4ccccc4n(C)c3c(=O)n21 | inactive | inactive | 19 | inactive | 17 |  |  |
| CC(=O)c1nc(C(=O)NCCc2ccccc2)cc2c3ccccc3n(C)c12 | inactive | inactive | 12 | inactive | 7.4 |  |  |
| O=C(NCCc1ccccc1)c1cc2c([nH]c3ccccc32)c(=O)[nH]1 | inactive | inactive |  | inactive |  | Not Active | Not Active |
| CO[C@@]1(C)N(/C=C\c2ccccc2)C(=O)c2cc3c4ccccc4n(C)c3c(=O)n21 | inactive | inactive | 12 | inactive | 2.3 |  |  |
| CO[C@@]1(C)N(/C=C/c2ccccc2)C(=O)C2=C[C@@]3(C(=O)N(C)c4ccccc43)C(=O)N21 | inactive | inactive | 5.8 | inactive | 7.2 |  |  |
| CC(=O)c1nc(C(=O)NCCc2ccccc2)cc2c1[nH]c1ccccc12 | inactive | inactive | 12 | inactive | 13 |  |  |
| COc1cccc2c1C(=O)c1c(O)c3c(c(O)c1C2=O)C[C@@](O)(C(=O)CO)C[C@@H]3O[C@H]1C[C@H](N)[C@H](O)[C@H](C)O1 [DOXORUBICIN] |  |  | 3.9 |  | 0.6 |  |  |
| CO[C@@]1(C)N(/C=C\c2ccccc2)C(=O)c2cc3c([nH]c4ccccc43)c(=O)n21 | inactive | inactive |  | inactive |  | Not Active | Not Active |
| CCCCCc1[nH]c(=O)c2cnccc2c1C | inactive | inactive |  | inactive |  | Not Active | Not Active |
